From ChEMBL document CHEMBL4020769, “Gemcitabine anti-proliferative activity significantly enhanced upon conjugation with cell-penetrating peptides” (Bioorg Med Chem Lett, 2017)
pIC50: −log10 of the molar value. Peptide text beside a SMILES is read from it. * marks the point of attachment. X1 = O=C(CCS*)Nc1ccn([C@@H]2O[C@H](CO)[C@@H](O)C2(F)F)c(=O)n1

How the values were obtained:
HT-29 [1] = test: Antiproliferative activity against human HT-29 cells after 48 hrs by sulforhodamine B assay; assay type: functional, cell-based; conditions: for pIC50: HT-29, 48 h
MKN-28 = test: Antiproliferative activity against human MKN28 cells after 48 hrs by sulforhodamine B assay; assay type: functional, cell-based; conditions: MKN-28, 48 h
Caco-2 = test: Antiproliferative activity against human Caco2 cells after 48 hrs by sulforhodamine B assay; assay type: functional, cell-based; conditions: Caco-2, 48 h
HT-29 [2] = test: Growth inhibition of human HT-29 cells after 48 hrs by sulforhodamine B assay relative to control; assay type: functional
[3] = Half life in pH 7.4 phosphate buffered saline by HPLC method; assay type: physicochemical
[4] = Prodrug conversion in pH 7.4 phosphate buffered saline assessed as gemcitabine release by HPLC method

Row | Compound | pIC50 (HT-29 [1]) | pIC50 (MKN-28) | pIC50 (Caco-2) | half-life [3] [h] | growth inhibition (GI) (HT-29 [2]) [%] | Activity (HT-29 [1]) | Drug metabolism [4]
1 | Nc1ccn([C@@H]2O[C@H](CO)[C@@H](O)C2(F)F)c(=O)n1 [GEMCITABINE] | < 4.00 | < 4.00 | < 4.00 |  | 30 |  | 
2 | CC[C@H](C)[C@H](NC(=O)[C@H](CCCCN)NC(=O)[C@@H](NC(=O)[C@H](CCC(N)=O)NC(=O)[C@H](CCCNC(=N)N)NC(=O)[C@@H](N)CSSCCC(=O)Nc1ccn([C@@H]2O[C@H](CO)[C@@H](O)C2(F)F)c(=O)n1)[C@@H](C)CC)C(=O)N[C@@H](Cc1c[nH]c2ccccc12)C(=O)N[C@@H](Cc1ccccc1)C(=O)N[C@@H](CCC(N)=O)C(=O)N[C@@H](CC(N)=O)C(=O)N[C@@H](CCCNC(=N)N)C(=O)N[C@@H](CCCNC(=N)N)C(=O)N[C@@H](CCSC)C(=O)N[C@@H](CCCCN)C(=O)N[C@@H](Cc1c[nH]c2ccccc12)C(=O)N[C@@H](CCCCN)C(=O)N[C@@H](CCCCN)C(=O)O | 4.33 | 4.33 | 4.17 | 230 |  | Dose-dependent effect | Metabolite detected

The next lines start with results.

Row | pIC50 (HT-29 [1]) | pIC50 (MKN-28) | pIC50 (Caco-2) | half-life [3] [h] | Compound | growth inhibition (GI) (HT-29 [2]) [%] | Activity (HT-29 [1]) | Drug metabolism [4]
3 | < 4.00 | < 4.00 | < 4.00 |  | H-CLLIILRRRIRKQAHAHSK-OH |  |  | 
4 | < 4.00 | < 4.00 | < 4.00 |  | CC[C@H](C)[C@H](NC(=O)[C@H](CCCCN)NC(=O)[C@@H](NC(=O)[C@H](CCC(N)=O)NC(=O)[C@H](CCCNC(=N)N)NC(=O)[C@@H](N)CS)[C@@H](C)CC)C(=O)N[C@@H](Cc1c[nH]c2ccccc12)C(=O)N[C@@H](Cc1ccccc1)C(=O)N[C@@H](CCC(N)=O)C(=O)N[C@@H](CC(N)=O)C(=O)N[C@@H](CCCNC(=N)N)C(=O)N[C@@H](CCCNC(=N)N)C(=O)N[C@@H](CCSC)C(=O)N[C@@H](CCCCN)C(=O)N[C@@H](Cc1c[nH]c2ccccc12)C(=O)N[C@@H](CCCCN)C(=O)N[C@@H](CCCCN)C(=O)O |  |  | 
5 | 4.34 | 4.68 | < 4.00 | 42 | CC[C@H](C)[C@H](NC(=O)[C@H](CCCNC(=N)N)NC(=O)[C@H](CCCNC(=N)N)NC(=O)[C@H](CCCNC(=N)N)NC(=O)[C@H](CC(C)C)NC(=O)[C@@H](NC(=O)[C@@H](NC(=O)[C@H](CC(C)C)NC(=O)[C@H](CC(C)C)NC(=O)[C@@H](N)CSSCCC(=O)Nc1ccn([C@@H]2O[C@H](CO)[C@@H](O)C2(F)F)c(=O)n1)[C@@H](C)CC)[C@@H](C)CC)C(=O)N[C@@H](CCCNC(=N)N)C(=O)N[C@@H](CCCCN)C(=O)N[C@@H](CCC(N)=O)C(=O)N[C@@H](C)C(=O)N[C@@H](Cc1cnc[nH]1)C(=O)N[C@@H](C)C(=O)N[C@@H](Cc1cnc[nH]1)C(=O)N[C@@H](CO)C(=O)N[C@@H](CCCCN)C(=O)O (H-C(X1)LLIILRRRIRKQAHAHSK-OH) |  | Dose-dependent effect | Metabolite detected
